Test results: ChEMBL document CHEMBL3822409, “Synthesis and antitubercular activity of new 1,3,4-oxadiazoles bearing pyridyl and thiazolyl scaffolds” (Bioorg Med Chem Lett, 2016)
In brackets after ≈: the same amount, converted by molar mass.

What was measured:
[1] = Cytotoxicity against human THP1 cells by MTT assay; assay type: cell-based, THP-1
[2] = Selectivity index, ratio of CC50 for human HCT116 cells to MIC for dormant stage of Mycobacterium bovis BCG ATCC 35734; assay type: toxicity, cell-based, HCT-116; conditions: read-out: Selectivity Index
[3] = Cytotoxicity against human HeLa cells by MTT assay; assay type: cell-based
[4] = Selectivity index, ratio of CC50 for human THP1 cells to MIC for dormant stage of Mycobacterium bovis BCG ATCC 35734; assay type: toxicity, cell-based, THP-1; conditions: read-out: Selectivity Index
[5] = Selectivity index, ratio of CC50 for human HCT116 cells to MIC for active stage of Mycobacterium bovis BCG ATCC 35734; assay type: toxicity, cell-based, HCT-116; conditions: read-out: Selectivity Index
[6] = system: Mycobacterium tuberculosis; test: Antimycobacterial activity against dormant stage of Mycobacterium tuberculosis H37Ra ATCC 25177 measured on day 12 by XTT reduction menadione assay; assay type: functional, organism-based; conditions: H37Ra ATCC 25177, 288 h
[7] = Cytotoxicity against human PANC1 cells by MTT assay; assay type: cell-based, PANC-1
[8] = Selectivity index, ratio of CC50 for human THP1 cells to MIC for active stage of Mycobacterium bovis BCG ATCC 35734; assay type: toxicity, cell-based, THP-1; conditions: read-out: Selectivity Index
[9] = Selectivity index, ratio of CC50 for human HeLa cells to MIC for active stage of Mycobacterium bovis BCG ATCC 35734; assay type: toxicity, cell-based; conditions: read-out: Selectivity Index
[10] = system: Mycobacterium tuberculosis; test: Antimycobacterial activity against active stage of Mycobacterium tuberculosis H37Ra ATCC 25177 measured on day 8 by XTT reduction menadione assay; assay type: functional, organism-based; conditions: H37Ra ATCC 25177, 192 h
[11] = Selectivity index, ratio of CC50 for human PANC1 cells to MIC for active stage of Mycobacterium bovis BCG ATCC 35734; assay type: toxicity, cell-based, PANC-1; conditions: read-out: Selectivity Index
[12] = Selectivity index, ratio of CC50 for human HeLa cells to MIC for dormant stage of Mycobacterium bovis BCG ATCC 35734; assay type: toxicity, cell-based; conditions: read-out: Selectivity Index
[13] = Selectivity index, ratio of CC50 for human PANC1 cells to MIC for dormant stage of Mycobacterium bovis BCG ATCC 35734; assay type: toxicity, cell-based, PANC-1; conditions: read-out: Selectivity Index
[14] = Cytotoxicity against human HCT116 cells by MTT assay; assay type: cell-based, HCT-116

Row | Structure (SMILES) | CC50 [1] [µg/mL] | selectivity ratio [2] | CC50 [3] [µg/mL] | selectivity ratio [4] | selectivity ratio [5] | IC50 [6] [µg/mL] | MIC [6] [µg/mL] | CC50 [7] [µg/mL] | selectivity ratio [8] | selectivity ratio [9] | IC50 [10] [µg/mL] | MIC [10] [µg/mL] | selectivity ratio [11] | selectivity ratio [12] | selectivity ratio [13] | CC50 [14] [µg/mL]
1 | Cc1ccccc1-c1nnc(-c2sc(-c3cccnc3)nc2C)o1 | > 100 | 20 | > 100 | 20 | 17 | > 30 | > 30 | > 100 | 17 | 17 | > 30 | > 30 | 17 | 20 | 20 | > 100
2 | Cc1nc(-c2cccnc2)sc1-c1nnc(-c2ccc(O)cc2)o1 | > 100 | 3 | > 100 | 3 | 3 | > 30 | > 30 | > 100 | 3 | 3 | > 30 | > 30 | 3 | 3 | 3 | > 100
3 | Cc1nc(-c2cccnc2)sc1-c1nnc(Cc2ccccc2)o1 | > 100 | 10 | > 100 | 10 | 9 | > 30 | > 30 | > 100 | 9 | 9 | > 30 | > 30 | 9 | 10 | 10 | > 100
4 | Cc1nc(-c2cccnc2)sc1-c1nnc(-c2ccc([N+](=O)[O-])cc2)o1 | > 100 | 3 | > 100 | 3 | 3 | > 30 | > 30 | > 100 | 3 | 3 | > 30 | > 30 | 3 | 3 | 3 | > 100
5 | CC(=O)O[C@H]1C(=O)[C@@]2(C)[C@H]([C@H](OC(=O)c3ccccc3)[C@]3(O)C[C@H](OC(=O)[C@H](O)[C@@H](NC(=O)c4ccccc4)c4ccccc4)C(C)=C1C3(C)C)[C@]1(OC(C)=O)CO[C@@H]1C[C@@H]2O [PACLITAXEL] | 0.137 (≈ 0.161 µM) |  | 0.0048 (≈ 0.00562 µM) |  |  |  |  | 0.128 (≈ 0.15 µM) |  |  |  |  |  |  |  | 1.85 (≈ 2.17 µM)
6 | Cc1nc(-c2cccnc2)sc1-c1nnc(-c2ccc(Cl)cc2)o1 | > 100 | 3 | > 100 | 3 | 3 | > 30 | > 30 | > 100 | 3 | 3 | > 30 | > 30 | 3 | 3 | 3 | > 100
7 | COc1ccccc1-c1nnc(-c2sc(-c3cccnc3)nc2C)o1 | > 100 | 25 | > 100 | 25 | 38 | > 30 | > 30 | > 100 | 38 | 38 | > 30 | > 30 | 38 | 25 | 25 | > 100
8 | Cc1nc(-c2cccnc2)sc1-c1nnc(-c2ccccc2Cl)o1 | > 100 | 21 | > 100 | 21 | 19 | > 30 | > 30 | > 100 | 19 | 19 | > 30 | > 30 | 19 | 21 | 21 | > 100
9 | Cc1cccc(-c2nnc(-c3sc(-c4cccnc4)nc3C)o2)c1 | > 100 | 3 | > 100 | 3 | 3 | > 30 | > 30 | > 100 | 3 | 3 | > 30 | > 30 | 3 | 3 | 3 | > 100
10 | Cc1nc(-c2cccnc2)sc1-c1nnc(-c2ccncc2)o1 | > 100 | 2 | > 100 | 2 | 2 | > 30 | > 30 | > 100 | 2 | 2 | > 30 | > 30 | 2 | 2 | 2 | > 100
11 | CO[C@H]1/C=C/O[C@@]2(C)Oc3c(C)c(O)c4c(O)c(c(/C=N/N5CCN(C)CC5)c(O)c4c3C2=O)NC(=O)/C(C)=C\C=C\[C@H](C)[C@H](O)[C@@H](C)[C@@H](O)[C@@H](C)[C@H](OC(C)=O)[C@@H]1C [RIFAMPIN] | > 100 | 714 | > 100 | 714 | 1250 | 0.0024 (≈ 0.00292 µM) | 0.03 (≈ 0.0365 µM) | > 100 | 1250 | 1250 |  | 0.02 (≈ 0.0243 µM) | 1250 | 714 | 714 | > 100
12 | Cc1nc(-c2cccnc2)sc1-c1nnc(-c2ccc(Br)cc2)o1 | > 100 | 3 | > 100 | 3 | 3 | > 30 | > 30 | > 100 | 3 | 3 | > 30 | > 30 | 3 | 3 | 3 | > 100
13 | Cc1ccc(-c2nnc(-c3sc(-c4cccnc4)nc3C)o2)cc1 | > 100 | 3 | > 100 | 3 | 3 | > 30 | > 30 | > 100 | 3 | 3 | > 30 | > 30 | 3 | 3 | 3 | > 100
14 | Cc1nc(-c2cccnc2)sc1-c1nnc(-c2cccnc2)o1 | > 100 | 1 | > 100 | 1 | 2 | > 30 | > 30 | > 100 | 2 | 2 | > 30 | > 30 | 2 | 1 | 1 | > 100
15 | Cc1nc(-c2cccnc2)sc1-c1nnc(-c2ccccc2)o1 | > 100 | 3 | > 100 | 3 | 3 | > 30 | > 30 | > 100 | 3 | 3 | > 30 | > 30 | 3 | 3 | 3 | > 100
16 | Cc1nc(-c2cccnc2)sc1-c1nnc(-c2ccccc2[N+](=O)[O-])o1 | > 100 | 17 | > 100 | 17 | 39 | > 30 | > 30 | > 100 | 39 | 39 | > 30 | > 30 | 39 | 17 | 17 | > 100
17 | Cc1nc(-c2cccnc2)sc1-c1nnc(-c2cccc(Cl)c2Cl)o1 | > 100 | 3 | > 100 | 3 | 3 | > 30 | > 30 | > 100 | 3 | 3 | > 30 | > 30 | 3 | 3 | 3 | > 100
